From US7365096B2, “Methods for selectively inhibiting Janus tyrosine kinase 3 (Jak3)” (Board of Regents, The University of Texas System, priority 2002, dated 2008)
Entries after “also recorded” stand apart in the source; their conditions may differ.

Columns and labels:
Jak3 = molecular target: T1, Jak3 (Homo sapiens, UniProt P52333); test: Jak3 autokinase activity of immunopurified Jak3 (phosphotyrosine Western blot); type: biochemical; design: immunopurified Jak3 was assayed for Jak3 autokinase activity and tested by phosphotyrosine Western blot; endogenous in cells
T1 sequence (P52333 1-1124): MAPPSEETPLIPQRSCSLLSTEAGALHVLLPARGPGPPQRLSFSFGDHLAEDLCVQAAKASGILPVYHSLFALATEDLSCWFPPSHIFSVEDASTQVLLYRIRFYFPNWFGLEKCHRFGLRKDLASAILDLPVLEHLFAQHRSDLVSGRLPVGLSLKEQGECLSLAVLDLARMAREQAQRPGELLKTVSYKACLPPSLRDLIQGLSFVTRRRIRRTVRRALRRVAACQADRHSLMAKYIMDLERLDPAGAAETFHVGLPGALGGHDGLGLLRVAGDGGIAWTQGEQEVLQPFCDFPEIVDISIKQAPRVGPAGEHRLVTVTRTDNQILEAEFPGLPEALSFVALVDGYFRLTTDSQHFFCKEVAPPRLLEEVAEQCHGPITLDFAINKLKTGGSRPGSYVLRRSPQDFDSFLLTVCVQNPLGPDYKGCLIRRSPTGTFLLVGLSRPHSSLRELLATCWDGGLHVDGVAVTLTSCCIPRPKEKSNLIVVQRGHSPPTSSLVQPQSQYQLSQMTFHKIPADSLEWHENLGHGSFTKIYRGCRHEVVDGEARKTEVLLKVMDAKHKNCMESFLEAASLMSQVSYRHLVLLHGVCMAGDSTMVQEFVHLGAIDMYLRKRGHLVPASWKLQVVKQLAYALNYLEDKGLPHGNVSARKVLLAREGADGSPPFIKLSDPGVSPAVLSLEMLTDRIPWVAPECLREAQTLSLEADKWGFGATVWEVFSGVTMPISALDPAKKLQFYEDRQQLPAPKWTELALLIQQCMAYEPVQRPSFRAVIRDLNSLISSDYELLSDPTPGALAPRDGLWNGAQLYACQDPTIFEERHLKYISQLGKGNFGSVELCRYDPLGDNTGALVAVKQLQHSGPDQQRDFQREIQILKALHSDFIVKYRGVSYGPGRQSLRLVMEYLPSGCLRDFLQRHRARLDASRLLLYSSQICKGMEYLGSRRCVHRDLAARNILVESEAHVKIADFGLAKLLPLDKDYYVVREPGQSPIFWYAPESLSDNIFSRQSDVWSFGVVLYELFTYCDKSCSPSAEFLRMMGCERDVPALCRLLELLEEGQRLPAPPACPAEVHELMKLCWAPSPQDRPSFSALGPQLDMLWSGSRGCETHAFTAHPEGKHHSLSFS
Description: Immunopurified Jak3 was assayed for Jak3 autokinase activity and tested by phosphotyrosine Western blot in the absence or presence of 100 μM ATP and/or drug and compared to controls.
Referring now to FIG. 8, direct evidence is provided that […] (NC1153) inhibits Jak3 signaling pathways. […] The bands identified as “PY-Jak3” reveal only the active Jak3 at the indicated dosages of NC1153, with or without IL-2 and ATP.

LEW kidney allografts = test: Rat kidney allograft survival (LEW donors to ACI recipients); type: in vivo
adapter protein Shc = test: Shc tyrosine phosphorylation (phospho-Western blot); type: cell-based; conditions: phospho-Western blots
Description: (§1) Solubilization of membrane proteins, immunoprecipitation, and Western blot analysis. Frozen cell pellets were thawed on ice and solubilized in 1% TX-100 lysis buffer (10^8 cells/ml) and clarified by centrifugation, as previously described.^16 For human T-cells, supernates were incubated rotating end over end for 2 hours at 4° C. with either 5 μl/ml polyclonal rabbit antisera raised against peptides derived from the unique COOH-termini of Jak3 (amino acid [a.a.] 1104-1124), carboxyl termini of human Stat5a (a.a. 775-794) or Stat5b (a.a. 777-787).^26 Ab and immunoprecipitated proteins were captured by incubation for 30 minutes with Protein A-Sepharose beads (Pharmacia, Piscataway, N.J.), sedimented for purification, and eluted by boiling in 2×SDS-sample buffer (20% Glycerol, 10% 2-Mercaptoethanol, 4.6% SDS, 0.004% Bromophenol blue in 0.125 M Tris pH 6.8) for 4 minutes. For phosphoMapk assays, approximately 25 μg of total cell lysate was dissociated in SDS-sample buffer and separated on 10% (all others on 7.5%) SDS-PAGE under reducing conditions. […]

[1] = rat, in vivo
[2] = system: Jak2/Stat5a signaling pathway; test: Prolactin-stimulated Jak2/Stat5a signaling in rat Nb2 cells (phosphotyrosine Western blot); type: cell-based; conditions: increasing concentration, PRL stimulated
Description: as §1
In FIG. 9A, it can be seen that NC1153 inhibits Jak3 driven transcription factor-Stat5a/b in PHA activated T-cells treated with increasing concentrations of NC1153 in a dose dependent manner as measured via EMSA analysis (upper panel). […]

Lck = Lck (Homo sapiens, UniProt P06239); test: Tyrosine phosphorylation of activated Lck in YT cells; type: cell-based; design: Cellular extracts were immunoprecipitated with anti-Fyn or anti-Lck antibodies; endogenous in cells; host or cells: YT cells; conditions: 1-100 μM, 2 hours
Sequence of Lck (P06239 whole entry): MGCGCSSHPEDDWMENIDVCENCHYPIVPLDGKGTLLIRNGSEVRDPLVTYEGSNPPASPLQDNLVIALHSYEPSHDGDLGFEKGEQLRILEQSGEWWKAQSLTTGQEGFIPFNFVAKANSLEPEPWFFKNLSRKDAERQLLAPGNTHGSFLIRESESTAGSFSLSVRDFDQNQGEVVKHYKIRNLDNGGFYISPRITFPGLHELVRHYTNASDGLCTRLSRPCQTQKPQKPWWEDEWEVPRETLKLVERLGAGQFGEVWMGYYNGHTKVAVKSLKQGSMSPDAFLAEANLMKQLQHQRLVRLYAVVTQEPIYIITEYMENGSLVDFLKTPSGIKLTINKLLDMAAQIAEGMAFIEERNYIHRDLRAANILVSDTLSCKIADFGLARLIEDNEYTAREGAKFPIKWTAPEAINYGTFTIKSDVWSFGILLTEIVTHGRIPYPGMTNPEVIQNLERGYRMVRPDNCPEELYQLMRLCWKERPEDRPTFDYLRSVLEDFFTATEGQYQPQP

[3] = 160 mg/kg NC1153 oral gavage 7 days, thereafter 3×/week up to 90 days

CN(C)CC1CCCCCCCCCC(CN(C)C)C1=O (mixture of isomers) [649641P (NC1153)]
IC50 (Jak3; 100 μM ATP): ~2500 nM
inhibition of Jak3 relative to Jak2 in kinase assays (Jak3; FIG. 9B and FIG. 8): At least 50 fold
survival times of recipients surviving beyond 90 days (LEW kidney allografts; [3]): exceeding 200 days
treated recipients surviving beyond treatment of 90 days (LEW kidney allografts; [3]): 75%
MST (LEW kidney allografts; 649641P (NC1153) 240 mg/kg/day p.o. for 14 days): > 60 days
tyrosine phosphorylation of adapter protein Shc (adapter protein Shc): inhibited tyrosine phosphorylation
HDL [1]: increased HDL
HDL, LDL, or TG levels [1]: no effect
TG or LDL levels [1]: without changing TG or LDL levels
overall toxicity conclusion [1]: free of nephrotoxic and myelotoxic effects with mild lipotoxicity on high-fat challenge
peripheral blood counts (PBC) [1]: Neither 648641P nor CsA reduced PBC
Jak2/Stat5a activation by prolactin [2]: fails to inhibit
activity (tyrosine phosphorylation) of Lck (Lck): no effect; also recorded: does not block the activity; also recorded: did not inhibit
